Literature values as cited in patent US20140057987A1, “Disinfectant Spray with Indicator” (GENESIS LABORATORIES, INC., priority 2010, published 2014).

Conditions: colour change of indicator

Row | Compound | Transition pH range
1 | O=C(O)c1cc(N=Nc2ccc([N+](=O)[O-])cc2)ccc1O [Alizarine Yellow R] | 10.2-12.0 pH
2 | Cc1c(C2(c3cc(Br)c(O)c(Br)c3C)OS(=O)(=O)c3ccccc32)cc(Br)c(O)c1Br [Bromocresol green] | 3.8-5.4 pH
3 | Cc1cc(C2(c3cc(C)c(O)c(Br)c3)OS(=O)(=O)c3ccccc32)cc(Br)c1O [Bromocresol purple] | 5.2-6.8 pH
4 | O=S1(=O)OC(c2cc(Br)c(O)c(Br)c2)(c2cc(Br)c(O)c(Br)c2)c2ccccc21 [Bromophenol blue] | 3.0-4.6 pH
5 | Cc1c(C2(c3cc(C(C)C)c(O)c(Br)c3C)OS(=O)(=O)c3ccccc32)cc(C(C)C)c(O)c1Br [Bromothymol blue] | 6.0-7.6 pH
6 | Nc1c(/N=N/c2ccc(-c3ccc(/N=N/c4cc(S(=O)(=O)O)c5ccccc5c4N)cc3)cc2)cc(S(=O)(=O)O)c2ccccc12 [Congo red] | 3.0-5.0 pH
7 | Cc1cc(C2(c3ccc(O)c(C)c3)OS(=O)(=O)c3ccccc32)ccc1O [Cresol Red] | 7.2-8.8 pH
8 | CN(C)c1ccc(C(=C2C=CC(=[N+](C)C)C=C2)c2ccc(N(C)C)cc2)cc1 [Gentian violet(Methyl violet 10B), Gentian violet] | 0.0-2.0 pH
9 | CN(C)c1ccc(N=Nc2ccc(S(=O)(=O)[O-])cc2)cc1.[Na+] [Methyl orange] | 3.1-4.4 pH
10 | CN(C)c1ccc(N=Nc2ccccc2)cc1 [Methyl yellow] | 2.9-4.0 pH
11 | O=C1OC(c2ccc(O)c3ccccc23)(c2ccc(O)c3ccccc23)c2ccccc21 [Naphtholphthalein] | 7.3-8.7 pH
12 | Cc1cc2nc3ccc(N(C)C)cc3nc2cc1N.Cl [Neutral red] | 6.8-8.0 pH
13 | O=C1OC(c2ccc(O)cc2)(c2ccc(O)cc2)c2ccccc21 [Phenolphthalein] | 8.3-10.0 pH
14 | Cc1cc(O)c(C(C)C)cc1C1(c2cc(C(C)C)c(O)cc2C)OC(=O)c2ccccc21 [Thymolphthalein] | 9.3-10.5 pH
15 | Azolitmin | 4.5-8.3 pH

Same assay, conditions: colour change of indicator; high pH color green

Row | Compound | Transition pH range
16 | CN(C)c1ccc(/N=N/c2ccccc2C(=O)O)cc1 [Methyl red] | 4.5-5.2 pH

Same assay, conditions: colour change of indicator; high pH color yellow

Row | Compound | Transition pH range
17 | CN(C)c1ccc(/N=N/c2ccccc2C(=O)O)cc1 [Methyl red] | 4.4-6.2 pH

Same assay, conditions: first transition

Row | Compound | Transition pH range
18 | CN(C)c1ccc(C(c2ccccc2)c2ccc(N(C)C)cc2)cc1 [Leucomalachite green] | 0.0-2.0 pH
19 | Cc1cc(O)c(C(C)C)cc1C1(c2cc(C(C)C)c(O)cc2C)OS(=O)(=O)c2ccccc21 [Thymol blue] | 1.2-2.8 pH

Same assay, conditions: second transition

Row | Compound | Transition pH range
20 | CN(C)c1ccc(C(c2ccccc2)c2ccc(N(C)C)cc2)cc1 [Leucomalachite green] | 11.6-14.0 pH
21 | Cc1cc(O)c(C(C)C)cc1C1(c2cc(C(C)C)c(O)cc2C)OS(=O)(=O)c2ccccc21 [Thymol blue] | 8.0-9.6 pH
